These are literature values, as cited in paper PMC9620260 (Journal of Medicinal Chemistry, 2022).

Read-outs that look alike come from different tables or passages of the source.

Series [1] concerns the target T. cruzi trans-sialidase (TcTS).
Series [2] deals with C. perfringens sialidase (CpNanI).
Another series deals with Neu1. Particulars: selective for Neu1 over the other isoenzymes.
Experiment in series [3]: not given
The source holds these as a separate data set.

Consider `CC(=O)N[C@H]1[C@H]([C@H](O)[C@H](O)CO)O[C@@](Oc2ccc([N+](=O)[O-])cc2C(F)F)(C(=O)O)C[C@@H]1O` [2-difluoromethyl-4-nitrophenyl glycoside of αNeu5Ac], for which, in the series on T. cruzi, the “T. cruzi infection of mammalian cells” value is reported as “prevents T. cruzi infection of mammalian cells”. Also, in series [1] (irreversible inhibitor of trans-sialidase), the half-inhibitory concentration (IC50) was 600 µM.

Consider `O=C(O)c1cc(O)c2c(c1)C(=O)c1cc(O)c(Cl)c(O)c1C2=O` [6-chloro-9,10-dihydro-4,5,7-trihydroxy-9,10-dioxo-2-anthracenecarboxylic acid], for which, in series [1] (specific TcTS inhibitor), the IC50 is 0.58 µM.

With `COc1ccc(C=CC(=O)C=C(O)C=Cc2ccc(O)c(O)c2)cc1O` [7-(3,4-dihydroxyphenyl)-5-hydroxy-1-(3-hydroxy-4-methoxyphenyl) hepta-1,4,6-trien-3-one], the “inhibition of V. cholerae sialidase” value with V. cholerae sialidase was “inhibit”. The “inhibition of C. perfringens sialidase” value in series [2] is “inhibit”. In addition, the “inhibition of S. pneumoniae NanA” value in the series with SpNanA is on record as “inhibit”.

As for `CC(=O)NC1C(O)C(F)C(F)(C(=O)O)OC1C(O)C(O)CN=[N+]=[N-]` (stereo not shown) [9-azido-modified 2,3-diF-Neu5Ac], in the series on bacterial sialidase (effect of modification of 2,3-difluoro-Sia), the “inhibitory activity against bacterial sialidases” value was “increased inhibitory activity”.

Take `CCCCC(=O)NC[C@@H](O)[C@@H](O)[C@@H]1OC(C(=O)O)=C[C@H](O)[C@H]1NC(C)=O` [C-9 Pentylamido derivative of DANA]: in the series on Neu1, the “IC50 against Neu1” value is “micromolar”.

As for `CC(=O)N[C@H]1[C@H]([C@H](O)[C@H](O)CO)OC(C(=O)O)=C[C@@H]1O` [DANA, 2-deoxy-2,3-dehydro-N-acetylneuraminic acid], at influenza viral NA (influenza viral neuraminidases), the Ki values result is “micromolar range”. In addition, the “IC50 against TcTS” value in series [1] is listed as “several hundred”.

With `COc1cc(C)c(C(=O)Oc2cc(C)c(C(=O)O)c(O)c2)c(O)c1` [Evernic acid], the “inhibition against bacterial sialidase” value in the series with bacterial sialidase is given as “dose-dependent inhibition”.

For `CC(=O)N[C@H]1[C@H]([C@H](O)[C@H](O)CO)OC(O)(C(=O)O)C[C@@H]1O` (stereo partly shown) [Neu5Ac, N-acetylneuraminic acid], in the series with sialidases, the inhibition of sialidases entry was “weak inhibitor”.

Regarding `COC(=O)C1(OC(C)=O)OC([C@H](OC(C)=O)[C@@H](COC(C)=O)OC(C)=O)C(NC(C)=O)C(OC(C)=O)C1F` (stereo partly shown) [P-3Fax-Neu5Ac], the nephrotoxicity entry is “well-known nephrotoxicity”. Further, in the series with sialyltransferases, the “inhibition of the sialyltransferases” value is given as “cell-permeable specific inhibitor”.

`COc1cc2oc(-c3ccc(O)cc3O)c(CC=C(C)C)c(=O)c2c(O)c1/C=C/C(C)C` [artocarpin]: in the series with S. pneumoniae sialidases, the “inhibitory activity against S. pneumoniae sialidases” value is “inhibitory activity”. In addition, the “inhibitory activity against influenza sialidase” value in the series with influenza viral NA is “inhibitory activity”.

`O=C(CCc1ccccc1)C[C@@H]1C[C@@H](c2ccccc2)c2c(cc(/C=C/c3ccccc3)oc2=O)O1` [katsumadain A]: the “inhibitory activity against S. pneumoniae sialidases” value in the series with S. pneumoniae sialidases is recorded as “inhibitory activity”. In addition, in the series on influenza viral NA, the “inhibitory activity against influenza sialidase” value is reported as “inhibitory activity”.

Take `CCOC(=O)C1=C[C@@H](OC(CC)CC)[C@H](NC(C)=O)[C@@H](N)C1` [oseltamivir]: the side effects result in series [3] is “neuropsychiatric side effects”.
